Measurements from article PMC9395450, “Phase 1 study to evaluate the effects of rifampin on pharmacokinetics of pevonedistat, a NEDD8-activating enzyme inhibitor in patients with advanced solid tumors” (Investigational New Drugs, 2022).
Entries after “also recorded” stand apart in the source; their conditions may differ. Read-outs that look alike come from different tables or passages of the source.

Tests used:
[1] = parameters: method as in PMID 33089874; settings: following intravenous administration; ref [14]; cited from earlier work
[2] = ref [10]–[13], cited from earlier work
[3] = parameters: method as in PMID 30845347; settings: strong CYP3A/P-glycoprotein inhibitor itraconazole; ref [16]; cited from earlier work
[4] = parameters: method as in PMID 31355467; settings: ref [15], cited from earlier work
[5] = Safety: treatment-emergent adverse events (NCI CTCAE v4.03), safety population; type: in vivo, human; settings: N=20
Description: Safety was assessed by incidence and severity of treatment-emergent adverse events (TEAEs), vital signs, physical examinations, electrocardiograms, and clinical laboratory tests, and toxicities were graded according to the National Cancer Institute Common Terminology Criteria for Adverse Events (NCI CTCAE), version 4.03.
(§1) Pevonedistat PK was assessed in all patients who received the protocol-specified pevonedistat and rifampin doses in Part A, and had sufficient concentration–time data to permit reliable estimation of PK parameters (PK-evaluable population). PK data were summarized using descriptive statistics. For assessment of the effect of rifampin on pevonedistat PK, the ratios of geometric mean Cmax, AUClast and AUCinf of pevonedistat in the presence of rifampin on Day 10 versus in the absence of rifampin on Day 1 and associated 90% CI were calculated based on analysis of variance. Estimates for each PK parameter were obtained using a mixed effects model of log(PK parameter) with fixed terms for the rifampin effect and random terms for patient. Safety was assessed in all patients who received at least one dose of pevonedistat, and TEAEs were coded according to the Medical Dictionary for Regulatory Activities (MedDRA), version 20.0.

[6] = Phase 1 drug-drug interaction study: single-dose pevonedistat plasma PK in the absence or presence of rifampin; type: in vivo, human; settings: for AUC(0-t) / AUC(0-inf) / Cmax / clearance / Vd / half-life: human, plasma; for clearance: 50 mg/m2, plasma clearance, read-out: CL geometric mean (CV) (converted); for Vd: read-out: Vss geometric mean (CV); for half-life: read-out: t1/2z mean (SD) (converted)
Description: This was an open-label, multi-center study in adult patients with advanced solid tumors (NCT03486314). Eligible patients received a single 50 mg/m^2 pevonedistat dose via a 1-h infusion on Days 1 and 10, and daily oral dosing of rifampin 600 mg Days 3–11. Serial blood samples for the measurement of pevonedistat plasma concentrations were collected over 48 h following pevonedistat dosing. Pevonedistat PK parameters and ratios of geometric means for maximal plasma concentration (Cmax) and area under the plasma concentration versus time curve from time 0 to infinity (AUC0–inf) were calculated in the presence of rifampin (Day 10) and in reference to the absence of rifampin (Day 1), with associated 90% confidence intervals (CI) estimated using analysis of variance.
Serial blood samples for measuring pevonedistat concentrations were collected at intervals from 0 (predose) to 48 h after the single doses of pevonedistat on Day 1 and Day 10. Plasma samples were analyzed for pevonedistat concentrations using a previously reported validated liquid chromatography/mass spectrometry (LC–MS/MS) assay.
Pevonedistat PK parameters were calculated by noncompartmental analysis of the pevonedistat plasma concentration–time data using Phoenix WinNonlin version 8.1 (Certara, Princeton, NJ). The following single-dose PK parameters were derived: Cmax, AUC0-inf, AUC from time 0 to the last quantifiable concentration (AUC0–last), terminal disposition phase half-life (t1/2), clearance (CL), and volume of distribution at steady state (Vss).
as §1

[7] = most common TEAEs (≥ 15% of patients)
[8] = single dose 50 mg/m^2 ± rifampin
[9] = single dose 50 mg/m^2 ± rifampin, listed as Pevonedistat
[10] = iv, 50 mg/m2, single 50 mg/m^2 IV, in the absence of rifampin (Day 1), N=20
[11] = iv, 50 mg/m2, single 50 mg/m^2 IV, in the presence of rifampin (Day 10), N=17
[12] = presence of rifampin (Day 10) vs absence (Day 1)

For `NS(=O)(=O)OC[C@@H]1C[C@@H](n2ccc3c(N[C@H]4CCc5ccccc54)ncnc32)C[C@@H]1O` [pevonedistat, Pevonedistat], the whole-blood-to-plasma ratio [1] is given as 40, the “recommended dose for clinical investigation as a single agent” value ([2]; Days 1, 3 and 5 in 21-day cycles) is given as 50 mg/m^2 and the “maximum tolerated dose (MTD)” value ([2]; in combination with azacitidine) is given as 20 mg/m^2. For the same molecule, the “maximum tolerated dose (MTD)” value ([2]; in combination with carboplatin plus paclitaxel) was 20 mg/m^2, the “maximum tolerated dose (MTD)” value ([2]; in combination with docetaxel) was 25 mg/m^2 and the “effect of itraconazole on pevonedistat systemic exposure / PK” value [3] was “no clinically relevant effects; also recorded: did not result in clinically meaningful increase”. For the same molecule, the PK dose linearity ([4]; dose range 25–278 mg/m^2) was “linear”, the “impact of age, sex, tumor type, mild or moderate renal impairment (creatinine clearance ≥ 30 mL/min) on PK” value [4] was “no impact” and the “inter-patient variability in pevonedistat clearance” value [4] was “approximately 30%”. For the same molecule, the “TEAE of hypersensitivity leading to interruption of study drug or permanent withdrawal, patients” value [5] was “Two”, the “TEAE decreased appetite, patients” value [5, 7] was 4 [20%] n [%] and the “TEAE diarrhea, patients” value [5, 7] was 3 [15%] n [%]. For the same molecule, the “TEAE fatigue, patients” value [5, 7] was 3 [15%] n [%], the “Drug-related TEAEs, Events” value [5, 8] was 14 and the “Grade ≥ 3 TEAEs, Events” value [5, 8] was 17. For the same molecule, the “Grade ≥ 3 drug related TEAEs, Events” value [5, 8] was 3, the “Grade ≥ 3 drug related TEAEs, Patients (%)” value [5, 8] was 3 (15%) n (%) and the “On-study deaths, Events” value [5, 8] was 1. For the same molecule, the “Serious TEAEs leading to study drug discontinuation, Events” value [5, 8] was 1, the “Serious TEAEs leading to study drug discontinuation, Patients (%)” value [5, 8] was 1 (5.0) n (%) and the “Serious TEAEs, Events” value [5, 8] was 4. For the same molecule, the “Serious TEAEs, Patients (%)” value [5, 8] was 3 (15%) n (%), the “Serious TEAEs, drug related, Events” value [5, 8] was 1 and the “Serious TEAEs, drug related, Patients (%)” value [5, 8] was 1 (5.0) n (%). For the same molecule, the “TEAEs leading to study drug discontinuation, Events” value [5, 8] was 1, the “TEAEs leading to study drug discontinuation, Patients (%)” value [5, 8] was 1 (5.0) n (%) and the “TEAEs leading to study drug dose delayed, Events” value [5, 8] was 0. The “TEAEs leading to study drug dose delayed, Patients (%)” value [5, 8] was 0 n (%), the “TEAEs leading to study drug dose interruption, Events” value [5, 8] was 0 and the “TEAEs leading to study drug dose interruption, Patients (%)” value [5, 8] was 0 n (%). For the same molecule, the “TEAEs leading to study drug dose reduction, Events” value [5, 8] was 0, the “TEAEs leading to study drug dose reduction, Patients (%)” value [5, 8] was 0 n (%) and the “TEAEs, Events” value [5, 8] was 82. The “TEAEs, Patients (%)” value [5, 8] was 16 (80%) n (%), the “Drug-related TEAEs, Patients (%)” value [5, 9] was 9 (45.0) n (%) and the “Grade ≥ 3 TEAEs, Patients (%)” value [5, 9] was 7 (35.0) n (%). For the same molecule, the “Grade ≥ 3 drug related TEAEs, Patients (%)” value [5, 9] was 3 (15.0) n (%), the “On-study deaths, Patients (%)” value [5, 9] was 1 (5.0) n (%) and the “Serious TEAEs, Patients (%)” value [5, 9] was 3 (15.0) n (%). For the same molecule, the “TEAEs, Patients (%)” value [5, 9] was 16 (80.0) n (%), the “geometric mean AUClast in the presence of rifampin as % of that in the absence” value ([6]; Day 10 vs Day 1, 90% CI 68.4%–90.1%) was 78.5% and the “geometric mean AUC∞ (AUC0–inf) in the presence of rifampin as % of that in the absence” value ([6]; Day 10 vs Day 1, 90% CI 69.2%–90.2%) was 79%. The “geometric mean Cmax in the presence of rifampin as % of that in the absence” value ([6]; Day 10 vs Day 1, 90% CI 79.2%–117%) was 96.2%, the “decrease in pevonedistat systemic exposure with rifampin” value ([6]; coadministration with rifampin) was “approximately 20%” and the AUC(0-t) ([6]; intravenous, 50 mg/m^2, mixed-effects model, in the absence of rifampin, N=20, read-out: AUClast LS mean) was 2990 ng·h/mL. For the same molecule, the AUC(0-inf) ([6]; intravenous, 50 mg/m^2, mixed-effects model, in the absence of rifampin, N=20, read-out: AUC∞ LS mean) was 3030 ng·h/mL, the Cmax ([6]; intravenous, 50 mg/m^2, mixed-effects model, in the absence of rifampin, N=20, read-out: Cmax LS mean) was 602 ng/mL and the AUC(0-t) ([6]; intravenous, mixed-effects model, in the presence of rifampin, N=17, read-out: AUClast LS mean) was 2340 ng·h/mL. The AUC(0-inf) ([6]; intravenous, mixed-effects model, in the presence of rifampin, N=17, read-out: AUC∞ LS mean) was 2390 ng·h/mL, the Cmax ([6]; intravenous, mixed-effects model, in the presence of rifampin, N=17, read-out: Cmax LS mean) was 579 ng/mL and the clearance ([6]; iv, single 50 mg/m^2 IV, in the absence of rifampin (Day 1), N=20) was 550 mL/min. For the same molecule, the clearance ([6]; iv, single 50 mg/m^2 IV, in the presence of rifampin (Day 10), N=17) was 692 mL/min, the AUC(0-t) ([6]; iv, 50 mg/m2, single 50 mg/m^2 IV, in the absence of rifampin (Day 1), N=20, read-out: AUClast geometric mean (CV)) was 2990 ng·h/mL and the AUC(0-inf) ([6]; iv, 50 mg/m2, single 50 mg/m^2 IV, in the absence of rifampin (Day 1), N=20, read-out: AUC∞ geometric mean (CV)) was 3030 ng·h/mL. The Vd [6, 10] was 278 L, the half-life [6, 10] was roughly 7 h and the AUC(0-t) ([6]; iv, 50 mg/m2, single 50 mg/m^2 IV, in the presence of rifampin (Day 10), N=17, read-out: AUClast geometric mean (CV)) was 2330 ng·h/mL. For the same molecule, the AUC(0-inf) ([6]; iv, 50 mg/m2, single 50 mg/m^2 IV, in the presence of rifampin (Day 10), N=17, read-out: AUC∞ geometric mean (CV)) was 2370 ng·h/mL, the Vd [6, 11] was 265 L and the half-life [6, 11] was 5.7 h. The Cmax ([6]; single 50 mg/m^2 1-h IV infusion, in the absence of rifampin (Day 1), N=20, read-out: Cmax geometric mean (CV)) was 602 ng/mL, the Cmax ([6]; single 50 mg/m^2 1-h IV infusion, in the presence of rifampin 600 mg daily (Day 10), N=17, read-out: Cmax geometric mean (CV)) was 564 ng/mL and the “CL geometric mean (CV)” value ([6]; plasma clearance, single 50 mg/m^2 IV, in the absence of rifampin (Day 1), N=20) was 33.1 (31.2%) L/h. The “AUClast LS mean ratio (90% CI)” value [6, 12] was 0.785 (0.684–0.901), the “AUC∞ LS mean ratio (90% CI)” value [6, 12] was 0.790 (0.692–0.902) and the “Cmax LS mean ratio (90% CI)” value [6, 12] was 0.962 (0.792–1.17). The “t1/2z mean (SD)” value ([6]; single 50 mg/m^2 IV, in the absence of rifampin (Day 1), N=20) was 7.4 (1.4) h.
